Assays:
SIRT1 = target: T1, SIRT1 (Homo sapiens, UniProt Q96EB6); assay: AMC-peptide fluorogenic deacetylase assay with recombinant SIRT1, activation at […], compound fluorescence background subtracted; type: biochemical
T1 construct: SIRT1 (part)
T1 sequence (Q96EB6 2-747): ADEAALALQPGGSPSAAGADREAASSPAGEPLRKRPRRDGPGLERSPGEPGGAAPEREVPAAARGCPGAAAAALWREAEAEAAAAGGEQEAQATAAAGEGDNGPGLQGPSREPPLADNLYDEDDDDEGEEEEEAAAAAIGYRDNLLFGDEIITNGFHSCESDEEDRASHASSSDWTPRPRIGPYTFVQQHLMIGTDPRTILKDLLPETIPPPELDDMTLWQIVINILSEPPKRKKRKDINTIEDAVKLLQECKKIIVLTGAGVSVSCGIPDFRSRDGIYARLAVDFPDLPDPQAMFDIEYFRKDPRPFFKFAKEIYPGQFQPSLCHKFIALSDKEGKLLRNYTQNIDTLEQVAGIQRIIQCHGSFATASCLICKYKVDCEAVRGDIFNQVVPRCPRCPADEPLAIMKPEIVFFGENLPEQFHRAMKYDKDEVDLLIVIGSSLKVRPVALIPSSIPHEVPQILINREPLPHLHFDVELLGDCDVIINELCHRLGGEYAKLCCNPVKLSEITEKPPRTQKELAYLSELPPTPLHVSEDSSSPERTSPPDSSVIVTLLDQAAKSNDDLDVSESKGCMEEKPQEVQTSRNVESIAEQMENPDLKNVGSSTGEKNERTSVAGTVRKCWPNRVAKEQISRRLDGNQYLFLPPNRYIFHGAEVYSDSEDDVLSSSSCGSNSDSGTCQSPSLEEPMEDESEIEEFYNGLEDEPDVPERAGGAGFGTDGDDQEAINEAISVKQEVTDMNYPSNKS

SIRT2 = target: T2, SIRT2 (Homo sapiens, UniProt Q8IXJ6); assay: AMC-peptide fluorogenic deacetylase assay with recombinant SIRT2; Lineweaver-Burk kinetics; type: biochemical
T2 construct: SIRT2 (whole)
T2 sequence (Q8IXJ6 1-389): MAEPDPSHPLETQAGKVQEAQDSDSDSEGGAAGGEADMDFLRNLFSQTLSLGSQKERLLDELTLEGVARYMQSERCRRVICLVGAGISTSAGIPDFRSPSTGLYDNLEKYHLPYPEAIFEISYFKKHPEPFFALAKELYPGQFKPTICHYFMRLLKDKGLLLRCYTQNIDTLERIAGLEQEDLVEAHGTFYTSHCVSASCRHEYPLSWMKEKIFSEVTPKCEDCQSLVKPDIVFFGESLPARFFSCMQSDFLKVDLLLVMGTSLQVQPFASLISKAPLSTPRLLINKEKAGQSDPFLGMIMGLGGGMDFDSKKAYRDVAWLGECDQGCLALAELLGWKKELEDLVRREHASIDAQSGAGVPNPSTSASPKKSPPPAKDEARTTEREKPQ

For `Oc1ccc(/C=C/c2cc(O)cc(O)c2)cc1` [compound 1, resveratrol], the fold induction at 10 µM (SIRT1) was 11.6.
`COc1ccc2ccc(=O)oc2c1CC=C(C)C` [compound 4, osthole] was tested, and the IC50 (SIRT2) was 10 µM.

Source: article PMC6100537, “Exploration of the Fluorescent Properties and the Modulated Activities against Sirtuin Fluorogenic Assays of Chromenone-Derived Natural Products” (Molecules : A Journal of Synthetic Chemistry and Natural …, 2018)
